# Measured values from US20240109917A1 (ACTELION PHARMACEUTICALS LTD, priority 2020, published 2024).
# Read-outs that look alike come from different tables or passages of the source.
# Legend:
# [1] = target: PDGFRβ (Rattus norvegicus (Rat), UniProt Q05030); test: PDGFRβ Cellular Assay (PDGFRb P-Y751 HTRF in A10 cells stimulated with PDGF-BB); type: cell-based
# Summary of the method: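 Phospho-Y751 PDGFRβ was measured by HTRF in lysates of A10 rat cells. Cells received compound for 3 hours before PDGF-BB stimulation (100 ng/mL working stock).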
# [2] = target: Tb-labeled inactive PDGFRβ (Homo sapiens (Human), UniProt P09619); test: PDGFRβ LanthaScreen Assay; type: binding; details: read-out: PDGFR Lantha IC50
# Tb-labeled inactive PDGFRβ, sequence (P09619 33-1106): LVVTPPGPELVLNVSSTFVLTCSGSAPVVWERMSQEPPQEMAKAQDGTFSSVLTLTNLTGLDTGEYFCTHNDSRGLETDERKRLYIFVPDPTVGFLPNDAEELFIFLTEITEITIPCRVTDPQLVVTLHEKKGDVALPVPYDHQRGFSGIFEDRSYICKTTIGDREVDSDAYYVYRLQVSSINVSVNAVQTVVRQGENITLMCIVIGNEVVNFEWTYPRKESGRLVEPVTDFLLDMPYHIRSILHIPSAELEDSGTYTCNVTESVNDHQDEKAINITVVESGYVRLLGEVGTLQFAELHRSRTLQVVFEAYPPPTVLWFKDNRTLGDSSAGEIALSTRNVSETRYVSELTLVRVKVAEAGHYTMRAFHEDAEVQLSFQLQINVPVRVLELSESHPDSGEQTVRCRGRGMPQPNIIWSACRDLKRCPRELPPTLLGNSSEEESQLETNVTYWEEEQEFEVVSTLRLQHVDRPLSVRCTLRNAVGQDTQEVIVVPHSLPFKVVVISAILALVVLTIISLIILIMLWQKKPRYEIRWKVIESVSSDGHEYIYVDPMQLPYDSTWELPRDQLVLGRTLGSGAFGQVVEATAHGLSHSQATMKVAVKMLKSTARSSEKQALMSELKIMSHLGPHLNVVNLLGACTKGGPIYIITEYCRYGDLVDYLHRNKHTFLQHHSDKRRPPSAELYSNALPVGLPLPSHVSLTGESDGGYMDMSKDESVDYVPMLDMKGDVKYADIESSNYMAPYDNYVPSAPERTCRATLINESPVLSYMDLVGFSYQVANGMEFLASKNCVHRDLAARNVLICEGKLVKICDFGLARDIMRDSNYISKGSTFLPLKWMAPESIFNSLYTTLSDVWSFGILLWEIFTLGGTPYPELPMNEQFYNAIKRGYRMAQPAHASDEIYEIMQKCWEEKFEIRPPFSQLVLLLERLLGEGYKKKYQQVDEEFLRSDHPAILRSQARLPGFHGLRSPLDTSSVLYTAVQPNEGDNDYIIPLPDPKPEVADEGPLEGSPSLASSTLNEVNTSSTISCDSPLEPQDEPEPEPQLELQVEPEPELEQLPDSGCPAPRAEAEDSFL
# PDGFRβ, sequence (Q05030 32-1097): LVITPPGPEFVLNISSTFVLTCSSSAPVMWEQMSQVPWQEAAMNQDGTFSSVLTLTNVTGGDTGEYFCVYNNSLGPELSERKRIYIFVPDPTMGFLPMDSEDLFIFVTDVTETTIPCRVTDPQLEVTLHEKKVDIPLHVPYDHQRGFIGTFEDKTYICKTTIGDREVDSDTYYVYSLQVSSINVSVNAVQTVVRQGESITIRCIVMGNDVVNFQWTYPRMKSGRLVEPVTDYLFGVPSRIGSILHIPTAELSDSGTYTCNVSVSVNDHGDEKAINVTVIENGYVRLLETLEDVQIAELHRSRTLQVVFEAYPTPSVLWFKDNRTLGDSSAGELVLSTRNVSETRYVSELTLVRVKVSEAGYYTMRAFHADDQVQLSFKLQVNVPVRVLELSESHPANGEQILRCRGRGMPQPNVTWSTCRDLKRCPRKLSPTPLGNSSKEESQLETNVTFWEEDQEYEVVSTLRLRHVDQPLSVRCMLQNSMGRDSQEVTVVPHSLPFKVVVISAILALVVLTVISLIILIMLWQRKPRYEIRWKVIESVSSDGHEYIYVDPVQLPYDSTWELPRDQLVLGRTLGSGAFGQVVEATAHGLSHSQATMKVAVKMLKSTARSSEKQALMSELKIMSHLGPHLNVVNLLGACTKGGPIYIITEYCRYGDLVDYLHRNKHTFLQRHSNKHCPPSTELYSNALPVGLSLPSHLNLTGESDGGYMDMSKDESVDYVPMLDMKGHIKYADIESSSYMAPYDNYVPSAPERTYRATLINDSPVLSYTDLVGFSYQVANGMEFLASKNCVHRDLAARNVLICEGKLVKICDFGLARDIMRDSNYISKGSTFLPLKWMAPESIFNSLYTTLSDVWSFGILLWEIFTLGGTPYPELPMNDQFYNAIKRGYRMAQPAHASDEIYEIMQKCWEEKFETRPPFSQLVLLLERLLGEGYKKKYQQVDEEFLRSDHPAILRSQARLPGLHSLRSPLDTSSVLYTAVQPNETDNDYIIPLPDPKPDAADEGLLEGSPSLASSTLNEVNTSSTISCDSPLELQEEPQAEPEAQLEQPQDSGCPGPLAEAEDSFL
SMILES,IC50 ([1]; read-out: PDGFR Cellular IC50) [nM],IC50 [2] [nM],IC50 ([1]; PDGFR Cellular IC50) [nM]
"Cc1ncc(NC(=O)CN2CCCC23CC3)cc1NC(=O)c1cnn2cc(-c3cnn(C)c3)sc12 [Example 16, N-(5-(2-(4-azaspiro[2.4]heptan-4-yl)acetamido)-2-methylpyridin-3-yl)-2-(1-methyl-1H-pyrazol-4-yl)pyrazolo[5,1-b]thiazole-7-carboxamide]",4.1,5.1,
"Cc1ncc(NC(=O)OCCN2CCCC2(C)C)cc1NC(=O)c1cnn2cc(-c3cnn(C)c3)sc12 [Example 247, 2-(2,2-dimethylpyrrolidin-1-yl)ethyl (6-methyl-5-(2-(1-methyl-1H-pyrazol-4-yl)pyrazolo[5,1-b]thiazole-7-carboxamido)pyridin-3-yl)carbamate]",18.3,19.3,
"COCCn1cc(-c2cn3ncc(C(=O)Nc4cc(NC(=O)CCCN5CCC[C@@H]5C)cnc4C)c3s2)cn1 [Example 216, (S)-2-(1-(2-methoxyethyl)-1H-pyrazol-4-yl)-N-(2-methyl-5-(4-(2-methylpyrrolidin-1-yl)butanamido)pyridin-3-yl)pyrazolo[5,1-b]thiazole-7-carboxamide]",,47.8,626
"Cc1ncc(C(=O)NCCN2CCCC2)cc1NC(=O)c1cnn2cc(-c3cn(C)nc3C)sc12 [Example 218, 2-(1,3-Dimethyl-1H-pyrazol-4-yl)-N-(2-methyl-5-((2-(pyrrolidin-1-yl)ethyl)carbamoyl)pyridin-3-yl)pyrazolo[5,1-b]thiazole-7-carboxamide]",78.8,3.6,
"Cc1ncc(C(=O)N2CC2CNC(C)(C)C)cc1NC(=O)c1cnn2cc(-c3cccc4c3cnn4C)sc12 (centres unmarked) [Example 239, N-(5-(2-((tert-butylamino)methyl)aziridine-1-carbonyl)-2-methylpyridin-3-yl)-2-(1-methyl-1H-indazol-4-yl)pyrazolo[5,1-b]thiazole-7-carboxamide]",349,78.7,
"COc1ncccc1-c1cn2ncc(C(=O)Nc3cc(C(=O)NCCN4CCCC4)cnc3C)c2s1 [Example 229, 2-(2-Methoxypyridin-3-yl)-N-(2-methyl-5-((2-(pyrrolidin-1-yl)ethyl)carbamoyl)pyridin-3-yl)pyrazolo[5,1-b]thiazole-7-carboxamide]",15.5,1.6,
"Cc1cc(C(=O)NCCN2CCCC2(C)C)sc1NC(=O)c1cnn2cc(-c3cncnc3)sc12 [Example 185, N-(5-((2-(2,2-dimethylpyrrolidin-1-yl)ethyl)carbamoyl)-3-methylthiophen-2-yl)-2-(pyrimidin-5-yl)pyrazolo[5,1-b]thiazole-7-carboxamide]",42.6,> 3000,
"Cc1ncc(NC(=O)OC[C@@H]2CCCN2C)cc1NC(=O)c1cnn2cc(-c3cnn(C)c3)sc12 [Example 243, (S)-(1-methylpyrrolidin-2-yl)methyl (6-methyl-5-(2-(1-methyl-1H-pyrazol-4-yl)pyrazolo[5,1-b]thiazole-7-carboxamido)pyridin-3-yl)carbamate]",,13.1,20.3
"Cc1ncc(NC(=O)CN2CCC(F)(F)CC2)cc1NC(=O)c1cnn2cc(-c3cnn(C)c3)sc12 [Example 14, N-(5-(2-(4,4-difluoropiperidin-1-yl)acetamido)-2-methylpyridin-3-yl)-2-(1-methyl-1H-pyrazol-4-yl)pyrazolo[5,1-b]thiazole-7-carboxamide]",4.4,2.7,
"Cc1cc(C(=O)NCCN2CCCC2(C)C)sc1NC(=O)c1cnn2cc(-c3cnn(C)c3)sc12 [Example 182, N-(5-((2-(2,2-dimethylpyrrolidin-1-yl)ethyl)carbamoyl)-3-methylthiophen-2-yl)-2-(1-methyl-1H-pyrazol-4-yl)pyrazolo[5,1-b]thiazole-7-carboxamide]",1680,1980,
